Test results: patent publication US20030181426A1, “Compositions and methods for treating pain using cyclooxygenase-1 inhibitors” (priority 2002, published 2003)
Entries after “also recorded” stand apart in the source; their conditions may differ. Where two headings read alike, the source gives them in different places.

Key:
COX-1 and COX-2 = conditions: as known in the art / Warner, 1999; cited from earlier work
[1] = system: acetic acid-induced writhing response; conditions: mice; COX-1 sensitive pain models; Ochi et al. 2000; cited from earlier work
tactile allodynia [2] = test: Partial sciatic nerve ligation (PSNL) tactile allodynia, i.t. COX inhibitors; type: in vivo, Sprague-Dawley rats
Text: A Sprague-Dawley rats (Harlan Industries, Indianapolis, Ind., USA), weighing 200-250 g, were used in this study. All animal surgical procedures were in conformity with the Wake Forest University guidelines on the ethical use of animals and studies were approved by the Animal Care and Use Committee. Animals were implanted with intrathecal catheters according to the method described previously. (Yaksh TL, 1976). Briefly, under halothane anesthesia (2-4% in oxygen/air), animals were placed prone in a stereotaxic frame and a small incision was made at the back of the neck. A small puncture was made in the atlanto-occipital membrane of the cistema magna and a polyethylene catheter (PE-10, 7.5 cm) was inserted so that the caudal tip reached the lumbar enlargement of the spinal cord. The rostral end of the catheter was exteriorized at the top of the head and the wound was closed with sutures. Animals were allowed 4-5 days to recover from the surgery and those displaying signs of motor dysfunction (fore limb or hind limb paralysis) were excluded from the study. Rats were anesthetized with 2-4% halothane in oxygen-air. For partial […] nerve ligation (PSNL), the left sciatic nerve was exposed at the high thigh level and one-third to one-half of the nerve was ligated with silk suture (size 6) as previously described (Shir et al., 1991). Animals were maintained after surgery with ad libitum food and water on a 12-h light/dark cycle. All rats were allowed to recover for 4 weeks after PSNL. By then, tactile allodynia was well established in the ipsilateral hindpaw.

inflammation = conditions: rat animal model; compared to indomethancin; Mansferrer et al. 1994; cited from earlier work
noxious heat = test: Latency to paw withdrawal from noxious heat; type: in vivo, male Sprague-Dawley rats; conditions: drug alone; rats with intrathecal catheter
Description: After Animal Care and Use Committee approval, adult male Sprague-Dawley rats (240-330 g; Harlan, Indianapolis, Ind.) were anesthetized with halothane. A catheter was inserted, as previously described, through a small nick in the cisterna magnum membrane into the intrathecal space and advanced 7.5 cm such that its tip lay in the lumbar intrathecal space. […] After catheter implantation, rats were housed individually with a 12 h/12 h light/dark cycle and an unlimited supply of water and food. Experiments occurred at least 6 days after surgery.

tactile allodynia [3] = test: PSNL tactile allodynia, lidocaine; type: in vivo, male Sprague-Dawley rats
tactile allodynia [4] = test: L5 and L6 spinal nerve ligation (SNL) tactile allodynia, lidocaine and ketorolac; type: in vivo, male Sprague-Dawley rats
[5] = rat, in vivo, ip
[6] = Hind limb weakness or paralysis after lidocaine injection
[7] = system: locomotor activity after laparotomy; test: Post-laparotomy locomotor activity model; type: in vivo, rats
nociceptive responses [8] = conditions: normal and monoarthritic rats; Mazario et al. 2001; cited from earlier work
nociceptive responses [9] = conditions: mice with paw inflammation; Mazario et al. 2001; cited from earlier work
[10] = 300 μg intrathecal, 3 days after injection
[11] = IV 3 mg/kg, 24 hr after laparotomy, 3 mg/kg

For COc1ccc2cc(CC(=O)O)ccc2c1 [6-methoxy-2-napthyl acetic acid], which “preference in inhibition of COX-1 and COX-2” value (“preference in inhibition” below) (COX-1 and COX-2) is on record?
The value was “preferentially inhibit COX-2”.

With COc1ccc(-c2nc(C(=O)N3CCN(C)CC3)sc2-c2ccc(OC)cc2)cc1 [FR122047] as the compound, how does the “analgesic effect against acetic acid-induced writhing response” value [1] read?
Its value is “dose-dependent analgesic effect”.

With CS(=O)(=O)Nc1ccc([N+](=O)[O-])cc1OC1CCCCC1 [NS-398] as the compound, how does the “withdrawal threshold, ipsilateral hindpaw” value (tactile allodynia [2]; 2 and 4 h after injection) read?
The value was “reversed to pre-lesion baseline level”.

What about the “duration of reversal of withdrawal threshold” value (tactile allodynia [2]; 4 weeks after PSNL) of the same compound?
Its value is 24 h.

And the “withdrawal threshold, ipsilateral hindpaw” value (tactile allodynia [2]; 48 h post-injection)?
The value was “returned to pre-injection level”.

And the “anti-inflammatory and ulcerogenic effect” value (inflammation)?
The value was “anti-inflammatory but not ulcerogenic”.

What about the “analgesic effect against acetic acid-induced writhing response” value [1] of the same compound?
The value was “had no effect”.

With Clc1cccc(Cl)c1N=C1NCCN1 [clonidine] as the compound, how does the “antinociception (latency to paw withdrawal from noxious heat)” value (noxious heat) read?
Its value is “produced antinociception”.

For CC(C(=O)O)c1ccc(-c2ccccc2)c(F)c1 (stereo not shown) [flubiprofen], which “preference in inhibition” value (COX-1 and COX-2) is on record?
The value was “preferentially inhibit COX-1”.

For CC(C)Cc1ccc(C(C)C(=O)O)cc1 (stereo not shown) [ibuprofen], which “preference in inhibition” value (COX-1 and COX-2) is on record?
The value was “no or small preferences in inhibition of COX-1 and COX-2”.

Which “preference in inhibition” value (COX-1 and COX-2) does the source give for COc1ccc2c(c1)c(CC(=O)O)c(C)n2C(=O)c1ccc(Cl)cc1 [indomethancin] here?
Its value is “preferentially inhibit COX-1”.

For CCN(CC)CC(=O)Nc1c(C)cccc1C [lidocaine], which tactile allodynia (tactile allodynia [3]; 300 μg intraperitoneal, four PSNL rats) is on record?
Its tactile allodynia is “no attenuation or reversal of tactile allodynia was observed”.

And the antiallodynic effect (tactile allodynia [3]; 300 μg intrathecal, 1 week after injection)?
The antiallodynic effect was “disappeared”.

What about the “effect on the ipsilateral hind paw” value (tactile allodynia [3]; [10]) of the same compound?
The value was “antinociceptive effect”.

And the “reversal of tactile allodynia” value (tactile allodynia [3]; [10])?
The value was “also observed”.

And the “tactile allodynia in both hind paws” value (tactile allodynia [3]; 300 μg intrathecal, two weeks after PSNL, two hours following injection)?
The value was “significantly reversed”.

And the “tactile allodynia, ipsilateral hind paw” value (tactile allodynia [4]; 100 μg intrathecal, four weeks following SNL, two hours and 2 days following injection)?
Its value is “markedly reversed to the prelesion level”.

And the “withdrawal threshold in the hind paw” value (tactile allodynia [4]; 100 μg intrathecal, three days after injection)?
The value was “not significantly lower than the prelesion baseline value”.

What about the “tactile allodynia, ipsilateral hind paw” value (tactile allodynia [4]; 200 μg intrathecal, four weeks following SNL, two hours and 2 days following injection) of the same compound?
The value was “markedly reversed to the prelesion level”.

What about the “tactile allodynia, ipsilateral hind paw” value (tactile allodynia [4]; 200 μg intrathecal, three days after injection) of the same compound?
Its value is “reappeared”.

What about the “tactile allodynia, ipsilateral hind paw” value (tactile allodynia [4]; 300 μg intrathecal, four weeks following SNL, two hours and 2 days following injection) of the same compound?
The value was “markedly reversed to the prelesion level”.

And the “tactile allodynia, ipsilateral hind paw” value (tactile allodynia [4]; 300 μg intrathecal, three days after injection)?
The value was “reappeared”.

What about the behavior [5] of the same compound?
The behavior was “no abnormal behavior”.

And the “transient weakness or paralysis of both hind limbs, incidence” value ([6]; 100 μg intrathecal)?
The value was “completely absent”.

What about the “transient weakness or paralysis of both hind limbs, incidence” value ([6]; 200 μg intrathecal) of the same compound?
The value was “one third of rats”.

And the “transient weakness or paralysis of both hind limbs, incidence” value ([6]; 300 μg intrathecal)?
Its value is “almost all rats”.

What about the “duration of transient weakness or paralysis” value ([6]; intrathecal lidocaine) of the same compound?
Its value is 10 to 20 min.

For CN1CC[C@]23c4c5ccc(O)c4O[C@H]2[C@@H](O)C=C[C@H]3[C@H]1C5 [morphine], which “ambulatory activity in sham animals” value ([7]; 1 mg/kg) is on record?
The value was “stimulates ambulatory activity”.

What about the “effect of laparotomy on ambulatory activity” value [7, 11] of the same compound?
Its value is “blocked; also recorded: reversed”.

What about the “effect of laparotomy on vertical activity” value [7, 11] of the same compound?
The value was “not vertical counts; also recorded: not vertical activity”.

For CS(=O)(=O)Nc1ccc([N+](=O)[O-])cc1Oc1ccccc1 [nimesulide], which “preference in inhibition” value (COX-1 and COX-2) is on record?
The value was “preferentially inhibit COX-2”.

For CN1C(C(=O)Nc2ccccn2)=C(O)c2ccccc2S1(=O)=O [piroxicam], which “well established tactile allodynia in either hindpaw” value (tactile allodynia [2]; 4 weeks after PSNL) is on record?
Its value is “failed to attenuate”.

For CS(=O)(=O)c1ccc(C2=C(c3ccccc3)C(=O)OC2)cc1 [rofecoxib], which “reduction of nociceptive responses” value (nociceptive responses [8]) is on record?
The value was “no effect”.

What about the “reduction of nociceptive responses” value (nociceptive responses [9]) of the same compound?
Its value is “no effect”.
